# From patent US20240391931A1 (Bristol-Myers Squibb Company, priority 2021, published 2024)
# Counter-ions that a name gives are not always drawn. Like-named read-outs stand apart in the source and are kept apart here.
# How the values were obtained:
# [1] = target: T1, HER2 (Homo sapiens, UniProt P04626); test: HER2 occupancy assay in N87 cells; format: cell-based; details: concentration at which 50% of HER2 is irreversible bound, read-out: N87 HER2 Occ
# T1 construct: BT474 and N87 cell lines which endogenously overexpress the HER2 wildtype (WT) protein; endogenous in cells; host or cells: BT474, N87
# T1 sequence (P04626 23-1255): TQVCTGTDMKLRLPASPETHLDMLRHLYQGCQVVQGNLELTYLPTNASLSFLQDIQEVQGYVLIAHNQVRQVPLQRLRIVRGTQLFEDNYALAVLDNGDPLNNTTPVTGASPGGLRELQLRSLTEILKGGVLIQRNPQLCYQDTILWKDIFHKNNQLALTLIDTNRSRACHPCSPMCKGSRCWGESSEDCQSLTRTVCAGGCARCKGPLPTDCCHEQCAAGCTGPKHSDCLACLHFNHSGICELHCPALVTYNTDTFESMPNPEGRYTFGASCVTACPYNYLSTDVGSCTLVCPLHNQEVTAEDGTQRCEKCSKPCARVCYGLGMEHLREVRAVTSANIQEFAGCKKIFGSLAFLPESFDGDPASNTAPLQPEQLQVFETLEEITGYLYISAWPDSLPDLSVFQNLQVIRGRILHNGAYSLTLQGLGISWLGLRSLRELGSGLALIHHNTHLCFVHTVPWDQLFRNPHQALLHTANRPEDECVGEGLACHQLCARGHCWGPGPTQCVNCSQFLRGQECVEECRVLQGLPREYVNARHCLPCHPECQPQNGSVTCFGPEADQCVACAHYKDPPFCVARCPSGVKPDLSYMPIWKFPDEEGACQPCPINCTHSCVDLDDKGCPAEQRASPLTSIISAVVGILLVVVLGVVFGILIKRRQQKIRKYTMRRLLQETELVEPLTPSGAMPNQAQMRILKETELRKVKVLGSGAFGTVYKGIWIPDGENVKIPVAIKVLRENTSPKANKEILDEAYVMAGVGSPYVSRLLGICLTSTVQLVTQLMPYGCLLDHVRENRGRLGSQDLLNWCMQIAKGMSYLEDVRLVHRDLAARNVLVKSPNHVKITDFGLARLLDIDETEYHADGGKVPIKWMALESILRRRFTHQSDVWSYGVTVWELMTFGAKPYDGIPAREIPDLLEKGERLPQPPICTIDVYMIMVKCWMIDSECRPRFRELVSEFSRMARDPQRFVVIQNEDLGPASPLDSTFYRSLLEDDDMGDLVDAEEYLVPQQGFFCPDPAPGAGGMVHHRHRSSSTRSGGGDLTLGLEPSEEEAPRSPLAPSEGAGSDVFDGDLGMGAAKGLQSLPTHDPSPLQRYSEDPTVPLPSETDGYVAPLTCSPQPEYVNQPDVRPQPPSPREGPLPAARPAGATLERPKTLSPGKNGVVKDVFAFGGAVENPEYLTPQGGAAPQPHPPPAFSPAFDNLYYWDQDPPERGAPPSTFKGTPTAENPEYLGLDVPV
# Description: In order to assess free HER2 protein, a biotinylated probe was utilized. BT474, N87, and Ba/F3-HER2YVMA cells were treated with test compound as described for HER2 signaling. After compound treatment, cells were washed three times with cold phosphate buffer saline (PBS, Life Technologies, Carlsbad, CA), and lysed in modified occupancy lysis buffer prepared with an irreversible biotinylated tool compound (1 μM) in 25 mM Tris pH 7.5, 150 mM NaCl, 1% Triton, and supplemented with cOmplete, EDTA-free Protease inhibitor cocktail (Roche), Phosphatase Inhibitor Cocktails 2 and 3 (Sigma-Aldrich), and 1 mM PMSF (Sigma-Aldrich).
# To determine % occupancy, lysates were loaded into duplicate plates of the phospho (Tyr1248)/total ErbB2 whole cell lysate MSD kit (Meso-Scale Discovery) and incubated overnight. Plates were washed and incubation with either HER2-sulfoTag (1:50, Meso Scale Discovery) or Strep-Sulfo Tag (1:1000, Meso Scale Discovery), for detection of […]. A standard curve of untreated cells in serial dilution was included in each plate to independently fit streptavidin (Free HER2) and total HER2 MSD signals; non-specific signal (BSA control spots) was subtracted from each well. Free HER2 was then normalized by total HER2 for each sample. The results are reported as % DMSO control. The normalized data was fitted using a sigmoidal curve analysis program (Graph Pad Prism version 6) with variable Hill slope to determine EC50 values. The results are provided in Table 4, under columns titled “BT474-HER2 Occ”, “N87-HER2 Occ”, and “Ba/F3 YVMA-HER2 Occ”. HER2 Occ is the concentration of test compound at which 50% of HER2 is irreversible bound.
# [2] = system: Ba/F3 HER2YVMA cells; test: Cellular proliferation in Ba/F3 HER2YVMA cells; format: cell-based, murine; details: Mus musculus, BaF3, read-out: Ba/F3 YVMA GI50
# Description: (§1) Engineered lines expressing HER2YVMA and HER2 WT were prepared in HEK293 (human embryonic kidney cells), Ba/F3 (Interleukin 3 (IL3)-dependent murine pro B cell line), and BEAS2B (primary immortalized human bronchial epithelial cell line). Ba/F3, BEAS2B, and HEK293 cells were obtained from the American Type Culture Collection (ATCC, Manassas, VA). Parental Ba/F3 cells were grown in suspension in complete RPMI 1640 supplemented with 10% FBS and 1% P/S and 10 ng/ml interleukin 3 (IL3, Sigma-Aldrich). Hek293 and BEAS2B cells were grown as monolayers in DMEM supplemented with 10% FBS and 1% P/S. All cells were maintained and propagated in a humidified 5% CO2 incubator at 37° C.
# To generate Ba/F3, BEAS2B, and Hek-293 cells engineered with lentivirus to express HER2 WT or HER2YVMA, the cells were transduced with lentiviruses at multiplicity of infection (MOI) of 1 or 10; transduced cells were selected and maintained with G418 ([…]) (Geneticin, Life Technologies, Carlsbad, CA). Ba/F3 engineered cells were subjected to gradual withdrawal of interleukin 3 (IL-3, Sigma-Aldrich). After selection, IL3 independent Ba/F3 HER2YVMA, and BEAS2B HER2YVMA cells were cloned by limiting dilution. Hek293 HER2YVMA cells were used as pool. HER2 and phospho HER2 levels were confirmed by flow cytometery and immunoassay (MSD, Meso-Scale Discovery, Rockville, Maryland).
# (§2) Cell proliferation in non-adherent cells was investigated in Ba/F3 parental (IL3-dependent) and in the two IL3 independent cell clones tranduced to express mutant HER2 protein containing the YVMA insertion (Ba/F3 HER2YVMA). Cells were plated in DMEM supplemented with 10% FBS, 1% P/S, and 10 ng/ml IL3 (for parental Ba/F3 only) in 96-well white clear-bottom tissue culture plates (Costar, Sigma-Aldrich) at a starting cell density of 7500 cells. An 8-point standard curve with varying cell densities (starting at 100,000 cells and serially diluting down 2-fold) was prepared for each cell line and read after plating. Compound solutions were prepared in serum free media, and cells were treated as described above for adherent cells. Cell viability was determined by CellTiter Glo (Promega, Madison, WI) after 72 h. The results were converted to cell numbers using a standard curve; growth inhibition (GI50 values) were determined by Graph Pad Prism.
# (§3) The results of these experiments show the ability of compounds to inhibit cell growth in HER2 dependent cell lines and a control cell line (Ba/F3 parental) are depicted in Table 4 in the columns titled “G150 (nM)”. Ba/F3 parental results fall under the heading “Ba/F3 parental-G150”, and Ba/F3 HER2YVMA fall under the heading “Ba/F3 YVMA-G150”.
# [3] = system: Ba/F3 parental cells; test: Cellular proliferation in Ba/F3 parental (IL3-dependent) cells; format: cell-based, murine; details: Mus musculus, BaF3
# Description: as §1, §2, §3
# [4] = target: EGFR (Homo sapiens, UniProt P00533); test: EGFR occupancy in N87 cells; format: cell-based; set-up: endogenous in cells; host or cells: N87
# Sequence of EGFR (P00533 25-1210): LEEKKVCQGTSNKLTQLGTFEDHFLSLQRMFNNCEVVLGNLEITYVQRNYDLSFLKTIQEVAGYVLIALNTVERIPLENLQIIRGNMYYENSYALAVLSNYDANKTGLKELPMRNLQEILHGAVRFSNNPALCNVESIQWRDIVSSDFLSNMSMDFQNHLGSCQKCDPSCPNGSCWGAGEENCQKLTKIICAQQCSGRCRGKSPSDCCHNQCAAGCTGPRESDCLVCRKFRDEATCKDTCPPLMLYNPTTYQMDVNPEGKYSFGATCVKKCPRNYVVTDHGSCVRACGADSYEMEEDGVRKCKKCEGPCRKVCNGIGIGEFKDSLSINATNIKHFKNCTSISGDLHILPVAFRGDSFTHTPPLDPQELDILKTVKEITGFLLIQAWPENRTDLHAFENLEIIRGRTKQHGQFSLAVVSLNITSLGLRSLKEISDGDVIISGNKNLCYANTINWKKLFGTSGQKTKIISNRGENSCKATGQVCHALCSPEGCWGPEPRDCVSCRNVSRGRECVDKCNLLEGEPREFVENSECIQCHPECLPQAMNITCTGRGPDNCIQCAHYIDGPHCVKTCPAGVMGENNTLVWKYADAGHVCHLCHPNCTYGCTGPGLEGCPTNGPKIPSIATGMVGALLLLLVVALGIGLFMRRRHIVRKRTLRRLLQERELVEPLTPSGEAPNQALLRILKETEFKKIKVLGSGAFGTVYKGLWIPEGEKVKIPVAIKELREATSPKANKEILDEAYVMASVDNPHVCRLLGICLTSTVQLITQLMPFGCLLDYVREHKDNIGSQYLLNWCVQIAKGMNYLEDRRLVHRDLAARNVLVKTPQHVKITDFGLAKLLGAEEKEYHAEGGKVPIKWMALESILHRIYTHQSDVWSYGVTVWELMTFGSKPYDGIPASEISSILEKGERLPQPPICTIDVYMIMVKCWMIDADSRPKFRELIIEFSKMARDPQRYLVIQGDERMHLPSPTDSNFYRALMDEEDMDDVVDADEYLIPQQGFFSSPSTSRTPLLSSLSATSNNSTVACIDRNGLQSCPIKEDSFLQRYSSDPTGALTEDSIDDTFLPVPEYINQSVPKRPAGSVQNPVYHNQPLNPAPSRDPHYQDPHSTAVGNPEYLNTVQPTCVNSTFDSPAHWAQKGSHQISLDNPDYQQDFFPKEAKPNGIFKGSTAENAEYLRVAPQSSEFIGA
# Description: In order to assess free EGFR protein, a biotinylated probe was utilized as described for HER2 occupancy. N87 cells were plated, treated, and lysed as described for HER2 occupancy method. After treatment, the cells were washed three times with cold PBS, lysed at room temperature for 1 hr in modified occupancy lysis buffer (prepared as described in section titled “HER2 Occupancy Assay”). Lysates were stored at −70° C. until further analysis. For determination of % occupancy, lysates were loaded into duplicate plates of the phospho (Tyr 1068)/total EGFR whole cell lysate kit (Meso-Scale Discovery) and incubated overnight. Plates were washed and incubated with either EGFR-sulfoTag (1:50, Meso Scale Discovery) or Strep-Sulfo Tag (1:1000, Meso Scale Discovery), for detection of free and total EGFR, respectively. BSA control spots included in MSD plates were used to subtract non-specific signal. A standard curve of untreated cells in serial dilution was included in each plate to convert streptavidin and total EGFR MSD signals into free EGFR and total EGFR. Free EGFR was normalized to total EGFR for each sample. Data, reported as % […] control, was fitted using a sigmoidal curve analysis program (Graph Pad Prism version 6) with variable Hill slope to determine EC50 values. The results are provided in Table 4, under column titled “N87-EGFR Occ”. EGFR Occ is the concentration of test compound at which 50% of EGFR is irreversible bound.
# [5] = N87 cells, concentration at which 50% of EGFR is irreversible bound, read-out: N87 EGFR Occ
SMILES,EC50 [1],GI50 [2],GI50 [3],"EC50 [4, 5]",EC50 [4]
"Cc1ccc(Oc2ccc(Nc3ncnc4sc5c(c34)CCN(C(=O)/C=C/CN(C)C)C5)cc2C)cn1 [Compound 8, (E)-4-(Dimethylamino)-1-(4-((3-methyl-4-((6-methylpyridin-3-yl)oxy)phenyl)amino)-5,6-dihydropyrido[4′,3′:4,5]thieno[2,3-d]pyrimidin-7(8H)-yl)but-2-en-1-one]",< 100 nM,< 100 nM,1000 to 10000 nM,< 100 nM,–
Cc1cc(Nc2ncnc3sc4c(c23)CCN(C(=O)/C=C/CN2CCOCC2)C4)ccc1Oc1ccc2ncnn2c1 [Compound 12],< 100 nM,–,–,> 1000 nM,–
Cc1ccc(Oc2ccc(Nc3ncnc4sc5c(c34)CCN(C(=O)/C=C/CN3CC4CCC3C4)C5)cc2C)cn1 (stereo not shown) [Compound 14],< 100 nM,–,–,< 100 nM,–
Cc1ccc(Oc2ccc(Nc3ncnc4sc5c(c34)CCN(C(=O)/C=C/CN3CC4CC(C3)O4)C5)cc2C)cn1 [Compound 15],< 100 nM,–,–,< 100 nM,–
"Cc1ccc(Oc2ccc(Nc3ncnc4sc5c(c34)CCN(C(=O)/C=C/CN3CC4CCC(C4)C3)C5)cc2C)cn1 [Compound 16, (E)-4-(3-azabicyclo[3.2.1]octan-3-yl)-1-(4-((3-methyl-4-((6-methylpyridin-3-yl)oxy)phenyl)amino)-5,8-dihydropyrido[4′,3′:4,5]thieno[2,3-d]pyrimidin-7(6H)-yl)but-2-en-1-one benzenesulfonate salt]",< 100 nM,–,–,–,100 to 350 nM
"Cc1ccc(Oc2ccc(Nc3ncnc4sc5c(c34)CCN(C(=O)/C=C/CN3CCOCC3)C5)cc2C)cn1 [Compound 17, (E)-1-(4-((3-Methyl-4-((6-methylpyridin-3-yl)oxy)phenyl)amino)-5,6-dihydropyrido[4′,3′:4,5]thieno[2,3-d]pyrimidin-7(8H)-yl)-4-morpholinobut-2-en-1-one]",< 100 nM,–,–,100 to 350 nM,–
"Cc1ccc(Oc2ccc(Nc3ncnc4sc5c(c34)CN(C(=O)/C=C/CN(C)C)CC5)cc2C)cn1 [Compound 108, (E)-4-(Dimethylamino)-1-(4-((3-methyl-4-((6-methylpyridin-3-yl)oxy)phenyl)amino)-7,8-dihydropyrido[3′,4′:4,5]thieno[2,3-d]pyrimidin-6(5H)-yl)but-2-en-1-one]",–,< 100 nM,1000 to 10000 nM,–,–
Cc1ccc(Oc2ccc(Nc3ncnc4sc5c(c34)CCN(C(=O)/C=C/CN3CC[C@H](F)C3)C5)cc2C)cn1 [Compound 124],–,< 100 nM,1000 to 10000 nM,–,–
"Cc1cc(Nc2ncnc3sc4c(c23)CCN(C(=O)/C=C/CN(C)C)C4)ccc1Oc1ccn2ccnc2c1 [Compound 126, (E)-4-(dimethylamino)-1-(4-((4-(imidazo[1,2-a]pyridin-7-yloxy)-3-methylphenyl)amino)-5,8-dihydropyrido[4′,3′:4,5]thieno[2,3-d]pyrimidin-7(6H)-yl)but-2-en-1-one]",–,< 100 nM,1000 to 10000 nM,–,–
"Cc1nc2cc(Oc3ccc(Nc4ncnc5sc6c(c45)CCN(C(=O)/C=C/CN(C)C)C6)cc3C)ccn2n1 [Compound 127, (E)-4-(dimethylamino)-1-(4-((3-methyl-4-((2-methyl-[1,2,4]triazolo[1,5-a]pyridin-7-yl)oxy)phenyl)amino)-5,6-dihydropyrido[4′,3′:4,5]thieno[2,3-d]pyrimidin-7(8H)-yl)but-2-en-1-one]",–,100 to 1000 nM,1000 to 10000 nM,–,–
"COc1ccc(Oc2ccc(Nc3ncnc4sc5c(c34)CN(C(=O)/C=C/CN(C)C)C5)cc2C)cn1 [Compound 128, (E)-4-(dimethylamino)-1-(4-((4-((6-methoxypyridin-3-yl)oxy)-3-methylphenyl)amino)-5,7-dihydro-6H-pyrrolo[3′,4′:4,5]thieno[2,3-d]pyrimidin-6-yl)but-2-en-1-one]",< 100 nM,< 100 nM,1000 to 10000 nM,> 1000 nM,–
"Cc1ccc(Oc2ccc(Nc3ncnc4sc5c(c34)CN(C(=O)/C=C/CN(C)C)C5)cc2Cl)cn1 [Compound 129, (E)-1-(4-((3-Chloro-4-((6-methylpyridin-3-yl)oxy)phenyl)amino)-5H-pyrrolo[3′,4′:4,5]thieno[2,3-d]pyrimidin-6(7H)-yl)-4-(dimethylamino)but-2-en-1-one]",< 100 nM,< 100 nM,–,100 to 350 nM,–
"Cc1cc(Nc2ncnc3sc4c(c23)CN(C(=O)/C=C/CN(C)C)C4)ccc1Oc1ccn2ncnc2c1 [Compound 130, (E)-1-(4-((4-([1,2,4]Triazolo[1,5-a]pyridin-7-yloxy)-3-methylphenyl)amino)-5H-pyrrolo[3′,4′:4,5]thieno[2,3-d]pyrimidin-6(7H)-yl)-4-(dimethylamino)but-2-en-1-one]",–,< 100 nM,1000 to 10000 nM,–,–
